For the assay, the system named is T24 human bladder cancer cells. The assay can be described thus: Cell viability assay (MTS) in transfected T24 cells incubated with drugs. In kind it is cell-based. On the procedure:
T24 human bladder cancer cells were purchased from American Type Culture Collection (ATCC, Manassas, Va.) and maintained in RPMI1640 media (Invitrogen, Carlsbad, Calif.) with 10% FBS and 1% Penicillin/Streptomycin at 37° C. under 5% CO2. T24 cells at ˜80% confluence were transiently transfected with expressing constructs or small interfering RNAs (siRNAs) of EGFR and S100A9 using Lipofactamine 2000. For S100A9 overexpression, pCMV-Sports6-S100A9 and vector constructs were kindly provided by Dr. A. Moon (Duksung University, Korea). As transfection controls, empty (Ctrl) or NON-TARGET control siRNAs (siCtrl) were used.
Cell viability was determined using MTS reagents as instructed by the manufacturer's protocol (Promega Corporation, Madison, Wis.).

The values that follow come from patent publication US9689043B2 (CHUNGBUK NATIONAL UNIVERSITY INDUSTRY—ACADEMIC COOPERATION …, priority 2012, dated 2017).

Regarding `COc1cc2ncnc(Nc3ccc(F)c(Cl)c3)c2cc1OCCCN1CCOCC1` [Iressa, gefitinib], where the note is “T24 cells, EGFR inhibition with Iressa (FIG. 6, line 2)”, the Cell viability entry is “significantly reduced viability”. In addition, the Chemo-sensitivity to cisplatin entry is, setting by setting: (T24 cells, EGFR inhibition with Iressa plus cisplatin (FIG. 6, line 2)) “enhanced chemo-sensitivity to cisplatin”; (T24 cells, Iressa combined with S100A9 silencing by siRNA, plus cisplatin (FIG. 6, line 4)) “synergistically enhanced chemo-sensitivity”.

Take `N.N.[Cl][Pt][Cl]` [cisplatin]: where the note is “EGFR overexpressing T24 cells, 10 μM cisplatin, serum free medium”, the “Cisplatin-induced apoptosis / viability” value is listed as “did not show significant apoptosis until 24 h-treatment”.
